The term IC50 denotes the concentration at which inhibition is half-maximal.

Chain of human NaV 1.8 (Q9Y5Y9 126-1722 limits assumed): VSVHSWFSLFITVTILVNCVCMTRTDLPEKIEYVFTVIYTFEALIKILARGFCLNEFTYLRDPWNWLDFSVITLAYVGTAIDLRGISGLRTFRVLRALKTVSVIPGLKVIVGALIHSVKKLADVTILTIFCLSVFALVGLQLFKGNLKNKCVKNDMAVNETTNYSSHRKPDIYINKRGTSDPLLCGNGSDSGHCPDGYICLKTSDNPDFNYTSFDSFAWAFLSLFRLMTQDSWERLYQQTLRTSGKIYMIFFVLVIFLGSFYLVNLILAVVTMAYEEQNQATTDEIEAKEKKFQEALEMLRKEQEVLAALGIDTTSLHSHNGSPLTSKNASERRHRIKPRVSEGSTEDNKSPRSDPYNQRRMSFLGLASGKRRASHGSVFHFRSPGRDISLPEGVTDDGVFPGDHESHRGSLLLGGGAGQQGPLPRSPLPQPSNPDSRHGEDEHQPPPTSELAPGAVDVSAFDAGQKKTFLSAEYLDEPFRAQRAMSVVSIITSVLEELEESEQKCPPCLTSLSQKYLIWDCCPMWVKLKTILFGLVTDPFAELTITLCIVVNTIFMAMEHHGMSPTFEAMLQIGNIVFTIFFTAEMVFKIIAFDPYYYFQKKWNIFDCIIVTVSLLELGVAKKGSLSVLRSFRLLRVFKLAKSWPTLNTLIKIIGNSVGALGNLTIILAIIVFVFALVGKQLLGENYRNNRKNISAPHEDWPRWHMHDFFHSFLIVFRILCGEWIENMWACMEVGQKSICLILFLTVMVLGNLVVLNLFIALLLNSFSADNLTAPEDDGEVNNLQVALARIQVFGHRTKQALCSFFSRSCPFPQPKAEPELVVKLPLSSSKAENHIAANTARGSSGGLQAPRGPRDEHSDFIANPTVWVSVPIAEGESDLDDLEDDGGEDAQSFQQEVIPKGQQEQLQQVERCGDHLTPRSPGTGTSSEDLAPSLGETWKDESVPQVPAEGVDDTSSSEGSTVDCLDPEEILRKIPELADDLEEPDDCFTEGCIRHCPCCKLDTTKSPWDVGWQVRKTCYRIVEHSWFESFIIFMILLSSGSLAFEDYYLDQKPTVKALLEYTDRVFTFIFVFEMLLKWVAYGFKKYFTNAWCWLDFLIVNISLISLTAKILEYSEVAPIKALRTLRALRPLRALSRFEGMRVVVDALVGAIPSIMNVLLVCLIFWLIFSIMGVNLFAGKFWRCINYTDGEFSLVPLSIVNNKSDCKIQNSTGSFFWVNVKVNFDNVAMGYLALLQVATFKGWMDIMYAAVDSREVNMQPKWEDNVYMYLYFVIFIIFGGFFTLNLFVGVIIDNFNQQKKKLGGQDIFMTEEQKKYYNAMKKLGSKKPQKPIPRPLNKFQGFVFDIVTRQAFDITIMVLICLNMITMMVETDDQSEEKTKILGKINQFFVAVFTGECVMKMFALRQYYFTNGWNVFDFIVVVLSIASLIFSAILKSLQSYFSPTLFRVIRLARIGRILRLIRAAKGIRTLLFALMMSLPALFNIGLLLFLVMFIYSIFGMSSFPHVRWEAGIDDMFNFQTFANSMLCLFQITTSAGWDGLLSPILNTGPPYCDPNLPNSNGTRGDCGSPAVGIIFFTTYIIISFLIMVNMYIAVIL

The target in the test is human NaV 1.8 (Homo sapiens, UniProt Q9Y5Y9). Nature of the test: E-VIPR Assay Detecting and Measuring NaV Inhibition Properties. The class given is cell-based. The conditions noted are these: HEK cells expressing a truncated form of human NaV 1.8 with full channel activity; electrical stimulation, membrane potential FRET dyes; read-out: measured IC50 value in the E-VIPR Assay. The text has this:
E-VIPR Assay Detecting and Measuring NaV Inhibition Properties
Sodium ion channels are voltage-dependent proteins that can be activated by inducing membrane voltage changes by applying electric fields. The electrical stimulation instrument and methods of use, referred to as E-VIPR, are described in International Publication No. WO 2002/008748 A3 and C.-J. Huang et al. Characterization of voltage-gated sodium channel blockers by electrical stimulation and fluorescence detection of membrane potential, 24 Nature Biotech. 439-46 (2006), both of which are incorporated by reference in their entirety. The instrument comprises a microtiter plate handler, an optical system for exciting the coumarin dye while simultaneously recording the coumarin and oxonol emissions, a waveform generator, a current- or voltage-controlled amplifier, and parallel electrode pairs that are inserted into assay plate wells. Under integrated computer control, this instrument passes user-programmed electrical stimulus protocols to cells within the wells of the microtiter plate.
16-20 hours prior to running the assay on E-VIPR, HEK cells expressing a truncated form of human NaV 1.8 with full channel activity were seeded into microtiter 384-well plates, pre-coated with matrigel, at a density of 25,000 cells per well. 2.5-5% KIR2.1 Bacmam virus was added to the final cell suspension before seeding into cell plates. HEK cells were grown in Dulbecco's Modified Eagle's Medium (DMEM) supplemented with 10% FBS (Fetal Bovine Serum, qualified; Sigma #F4135), 1% NEAA (Non-Essential Amino Acids, Gibco #11140), 1% HEPES (Gibco #15630), 1% Pen-Strep (Penicillin-Streptomycin; Gibco #15140) and 5 μg/ml Blasticidin (Gibco #R210-01). Cells were expanded in vented cap cell culture flasks, with 90-95% humidity and 5% CO2.
2.5-5% KIR 2.1 Bacmam virus (produced in-house), prepared as described in Section 3.3 of J. A. Fornwald et al., Gene Expression in Mammalian Cells Using BacMam, a Modified Baculovirus System, 1350 Methods in Molecular Biology 95-116 (2016), the entire contents of which are incorporated by reference. The concentration used can be dependent on viral titer of each batch.
5 mM DiSBAC6(3), a voltage sensitive oxonol acceptor (CAS number 169211-44-3; 5-[3-(1,3-dihexylhexahydro-4,6-dioxo-2-thioxo-5-pyrimidinyl)-2-propen-1-ylidene]-1,3-dihexyldihydro-2-thioxo-4,6(1H,5H)-pyrimidinedione), in dry DMSO. The preparation of DiSBAC6(3) is analogous to that of DiSBAC4(3) as described in Voltage Sensing by Fluorescence Resonance Energy Transfer in Single Cells, Gonzalez, J. E. and Tsien, R. Y. (1995) Biophys. J. 69, 1272-1280.
5 mM CC2-DMPE, a commercially available membrane-bound coumarin phospholipid FRET donor (ThermoFisher Scientific catalog number K1017, CAS number 393782-57-5; tetradecanoic acid, 1,1′-[(1R)-1-[8-(6-chloro-7-hydroxy-2-oxo-2H-1-benzopyran-3-yl)-3-hydroxy-3-oxido-8-oxo-2,4-dioxa-7-aza-3-phosphaoct-1-yl]-1,2-ethanediyl] ester) was prepared in dry DMSO. See also, Improved indicators of cell membrane potential that use fluorescence resonance energy transfer, Gonzalez, J. E. and Tsien, R. Y. (1997) Chem. Biol. 4, 269-277.
Voltage Assay Background Suppression Compound (VABSC-1) is prepared in H2O (89-363 mM, range used to maintain solubility)
Human Serum (HS, Millipore #S1P1-01KL, or Sigma SLBR5469V and SLBR5470V as a 50%/50% mixture, for 25% assay final concentration)
• Sodium Chloride 160 mM (9.35 g/L), Potassium Chloride, 4.5 mM (0.335 g/L), Glucose • 10 mM (1.8 g/L), Magnesium Chloride (Anhydrous) 1 mM (0.095 g/L), Calcium • Chloride 2 mM (0.222 g/L), HEPES 10 mM (2.38 g/L) in water.
• Sodium Chloride 96 mM (5.61 g/L), Potassium Chloride 4.5 mM (0.335 g/L), • Tetramethylammonium (TMA)-Cl 64 mM (7.01 g/L), Glucose 10 mM (1.8 g/L), • Magnesium Chloride (Anhydrous) 1 mM (0.095 g/L), Calcium Chloride 2 mM (0.222 • g/L) HEPES 10 mM (2.38 g/L) in water. […]
Regarding `C[C@H]1[C@@H](c2ccc(F)c(F)c2OCC2COC2)[C@H](C(=O)Nc2ccc(CO)nc2)O[C@@]1(C)C(F)(F)F` [Compound 24, (2R,3S,4S,5R)-3-(3,4-difluoro-2-(oxetan-3-ylmethoxy)phenyl)-N-(6-(hydroxymethyl)pyridin-3-yl)-4,5-dimethyl-5-(trifluoromethyl)tetrahydrofuran-2-carboxamide], the IC50 was in the range of 0.01 to 0.1 µM.

Take `C[C@H]1[C@@H](c2ccc(F)c(F)c2OCCN2CCOCC2)[C@H](C(=O)Nc2ccc(CO)nc2)O[C@@]1(C)C(F)(F)F` [Compound 25, (2R,3S,4S,5R)-3-(3,4-difluoro-2-(2-morpholinoethoxy)phenyl)-N-(6-(hydroxymethyl)pyridin-3-yl)-4,5-dimethyl-5-(trifluoromethyl)tetrahydrofuran-2-carboxamide]: the half-inhibitory concentration (IC50) was in the range of 0.01 to 0.1 µM. Then `C[C@H]1[C@@H](c2ccc(F)c(F)c2OCCN2C[C@H]3COC[C@H]3C2)[C@H](C(=O)Nc2cnc(CO)nc2)O[C@@]1(C)C(F)(F)F` [Compound 26, (2R,3S,4S,5R)-3-(3,4-difluoro-2-(2-((3aR,6aS)-tetrahydro-1H-furo[3,4-c]pyrrol-5(3H)-yl)ethoxy)phenyl)-N-(2-(hydroxymethyl)pyrimidin-5-yl)-4,5-dimethyl-5-(trifluoromethyl)tetrahydrofuran-2-carboxamide], with 0.1 to 1 µM.
